Values of other authors, collected in patent US8263660B2, “Stable hyperbaric composition comprising prilocaine HCl, use of said new composition for intrathecal anaethesia, and method for manufacturing said composition” (Sintetica S.A., priority 2006, dated 2012).

Details: intrathecal application, literature reference (4)

## CCN(CC)CCOC(=O)c1ccc(N)cc1 [procaine]
  inadequacy rate: ≤ 17%
